{"source": "patent US9750689B2", "about": "“Transdermal silicone gel (silogel) compositions and methods of preparation” (Humco Holding Group, Inc., priority 2013, dated 2017)", "experiment": "Percutaneous absorption testing (percent of applied dose that penetrated past the stratum corneum)", "description": "See Jorge, L., et al., Journal of Pain Research, Topical Preparations for Pain Relief—Efficacy and Patient Adherence, Vol. 4, No. 11-24, 2011.", "key": {"[1]": {"settings": "2 Hours, eight drugs dissolved together in Salt-Stable LS Advanced"}, "[2]": {"settings": "4 Hours, eight drugs dissolved together in Salt-Stable LS Advanced"}, "[3]": {"settings": "8 Hours, eight drugs dissolved together in Salt-Stable LS Advanced"}, "[4]": {"settings": "12 Hours, eight drugs dissolved together in Salt-Stable LS Advanced"}, "[5]": {"settings": "24 Hours, eight drugs dissolved together in Salt-Stable LS Advanced"}, "[6]": {"settings": "32 Hours, eight drugs dissolved together in Salt-Stable LS Advanced"}, "[7]": {"settings": "48 Hours, eight drugs dissolved together in Salt-Stable LS Advanced"}}, "note": "Read-outs that look alike come from different tables or passages of the source.", "data": [{"smiles": "NCC(CC(=O)O)c1ccc(Cl)cc1", "note": "(stereo not shown) [Baclofen]", "values": [{"measurement": "Percutaneous Absorption Testing, 2 Hours", "setting": "2 h", "value": 0, "unit": "%"}, {"measurement": "Percutaneous Absorption Testing, 4 Hours", "setting": "4 h", "value": 1, "unit": "%"}, {"measurement": "Percutaneous Absorption Testing, 8 Hours", "setting": "8 h", "value": 2, "unit": "%"}, {"measurement": "Percutaneous Absorption Testing, 12 Hours", "setting": "12 h", "value": 3, "unit": "%"}, {"measurement": "Percutaneous Absorption Testing, 24 Hours", "setting": "24 h", "value": 4, "unit": "%"}, {"measurement": "Percutaneous Absorption Testing, 32 Hours", "setting": "32 h", "value": 5, "unit": "%"}, {"measurement": "Percutaneous Absorption Testing, 48 Hours", "setting": "48 h", "value": 6, "unit": "%"}]}, {"smiles": "CCCCN1CCCCC1C(=O)Nc1c(C)cccc1C", "note": "(stereo not shown) [Bupivacaine]", "values": [{"measurement": "Percutaneous Absorption Testing, 2 Hours", "setting": "2 h", "value": 0, "unit": "%"}, {"measurement": "Percutaneous Absorption Testing, 4 Hours", "setting": "4 h", "value": 1, "unit": "%"}, {"measurement": "Percutaneous Absorption Testing, 8 Hours", "setting": "8 h", "value": 1, "unit": "%"}, {"measurement": "Percutaneous Absorption Testing, 12 Hours", "setting": "12 h", "value": 2, "unit": "%"}, {"measurement": "Percutaneous Absorption Testing, 24 Hours", "setting": "24 h", "value": 3, "unit": "%"}, {"measurement": "Percutaneous Absorption Testing, 32 Hours", "setting": "32 h", "value": 4, "unit": "%"}, {"measurement": "Percutaneous Absorption Testing, 48 Hours", "setting": "48 h", "value": 4, "unit": "%"}]}, {"smiles": "CN(C)CCC=C1c2ccccc2C=Cc2ccccc21", "note": "[Cyclobenzaprine]", "values": [{"measurement": "Percutaneous Absorption Testing, 2 Hours", "setting": "2 h", "value": 0, "unit": "%"}, {"measurement": "Percutaneous Absorption Testing, 4 Hours", "setting": "4 h", "value": 2, "unit": "%"}, {"measurement": "Percutaneous Absorption Testing, 8 Hours", "setting": "8 h", "value": 3, "unit": "%"}, {"measurement": "Percutaneous Absorption Testing, 12 Hours", "setting": "12 h", "value": 5, "unit": "%"}, {"measurement": "Percutaneous Absorption Testing, 24 Hours", "setting": "24 h", "value": 7, "unit": "%"}, {"measurement": "Percutaneous Absorption Testing, 32 Hours", "setting": "32 h", "value": 8, "unit": "%"}, {"measurement": "Percutaneous Absorption Testing, 48 Hours", "setting": "48 h", "value": 10, "unit": "%"}]}, {"smiles": "O=C(O)Cc1ccccc1Nc1c(Cl)cccc1Cl", "note": "[Diclofenac]", "values": [{"measurement": "Percutaneous Absorption Testing, 2 Hours", "setting": "2 h", "value": 0, "unit": "%"}, {"measurement": "Percutaneous Absorption Testing, 4 Hours", "setting": "4 h", "value": 1, "unit": "%"}, {"measurement": "Percutaneous Absorption Testing, 8 Hours", "setting": "8 h", "value": 4, "unit": "%"}, {"measurement": "Percutaneous Absorption Testing, 12 Hours", "setting": "12 h", "value": 4, "unit": "%"}, {"measurement": "Percutaneous Absorption Testing, 24 Hours", "setting": "24 h", "value": 7, "unit": "%"}, {"measurement": "Percutaneous Absorption Testing, 32 Hours", "setting": "32 h", "value": 10, "unit": "%"}, {"measurement": "Percutaneous Absorption Testing, 48 Hours", "setting": "48 h", "value": 10, "unit": "%"}]}, {"smiles": "NCC1(CC(=O)O)CCCCC1", "note": "[Gabapentin]", "values": [{"measurement": "Percutaneous Absorption Testing, 2 Hours", "setting": "[1]", "value": 0, "unit": "%"}, {"measurement": "Percutaneous Absorption Testing, 4 Hours", "setting": "[2]", "value": 0, "unit": "%"}, {"measurement": "Percutaneous Absorption Testing, 8 Hours", "setting": "[3]", "value": 1, "unit": "%"}, {"measurement": "Percutaneous Absorption Testing, 12 Hours", "setting": "[4]", "value": 2, "unit": "%"}, {"measurement": "Percutaneous Absorption Testing, 24 Hours", "setting": "[5]", "value": 2, "unit": "%"}, {"measurement": "Percutaneous Absorption Testing, 32 Hours", "setting": "[6]", "value": 3, "unit": "%"}, {"measurement": "Percutaneous Absorption Testing, 48 Hours", "setting": "[7]", "value": 3, "unit": "%"}]}, {"smiles": "CC(C)Cc1ccc(C(C)C(=O)O)cc1", "note": "(stereo not shown) [Ibuprofen]", "values": [{"measurement": "Percutaneous Absorption Testing, 2 Hours", "value": 5, "unit": "%"}, {"measurement": "Percutaneous Absorption Testing, 4 Hours", "value": 8, "unit": "%"}, {"measurement": "Percutaneous Absorption Testing, 12 Hours", "value": 20, "unit": "%"}, {"measurement": "Percutaneous Absorption Testing, 24 Hours", "value": 30, "unit": "%"}, {"measurement": "Percutaneous Absorption Testing, 32 Hours", "value": 39, "unit": "%"}, {"measurement": "Percutaneous Absorption Testing, 48 Hours", "value": 39, "unit": "%"}]}, {"smiles": "CNC1(c2ccccc2Cl)CCCCC1=O", "note": "(stereo not shown) [Ketamine]", "values": [{"measurement": "Percutaneous Absorption Testing, 2 Hours", "setting": "[1]", "value": 4, "unit": "%"}, {"measurement": "Percutaneous Absorption Testing, 4 Hours", "setting": "[2]", "value": 7, "unit": "%"}, {"measurement": "Percutaneous Absorption Testing, 8 Hours", "setting": "[3]", "value": 20, "unit": "%"}, {"measurement": "Percutaneous Absorption Testing, 12 Hours", "setting": "[4]", "value": 25, "unit": "%"}, {"measurement": "Percutaneous Absorption Testing, 24 Hours", "setting": "[5]", "value": 38, "unit": "%"}, {"measurement": "Percutaneous Absorption Testing, 32 Hours", "setting": "[6]", "value": 51, "unit": "%"}, {"measurement": "Percutaneous Absorption Testing, 48 Hours", "setting": "[7]", "value": 51, "unit": "%"}]}, {"smiles": "CC(=O)CCCCn1c(=O)c2c(ncn2C)n(C)c1=O", "note": "[Pentoxifylline]", "values": [{"measurement": "Percutaneous Absorption Testing, 2 Hours", "setting": "2 h", "value": 3, "unit": "%"}, {"measurement": "Percutaneous Absorption Testing, 4 Hours", "setting": "4 h", "value": 7, "unit": "%"}, {"measurement": "Percutaneous Absorption Testing, 8 Hours", "setting": "8 h", "value": 26, "unit": "%"}, {"measurement": "Percutaneous Absorption Testing, 12 Hours", "setting": "12 h", "value": 34, "unit": "%"}, {"measurement": "Percutaneous Absorption Testing, 24 Hours", "setting": "24 h", "value": 53, "unit": "%"}, {"measurement": "Percutaneous Absorption Testing, 32 Hours", "setting": "32 h", "value": 71, "unit": "%"}, {"measurement": "Percutaneous Absorption Testing, 48 Hours", "setting": "48 h", "value": 71, "unit": "%"}]}]}
